Read-outs that look alike come from different tables or passages of the source.
Columns and labels:
TBK1 = target: T1, TBK1 (Homo sapiens, UniProt Q9UHD2); experiment: In-vitro TBK1 kinase assay ([γ33]ATP filter-plate); format: biochemical
T1 construct: His-tag; made in house; host or cells: Sf9 insect cells
T1 sequence (Q9UHD2 1-729): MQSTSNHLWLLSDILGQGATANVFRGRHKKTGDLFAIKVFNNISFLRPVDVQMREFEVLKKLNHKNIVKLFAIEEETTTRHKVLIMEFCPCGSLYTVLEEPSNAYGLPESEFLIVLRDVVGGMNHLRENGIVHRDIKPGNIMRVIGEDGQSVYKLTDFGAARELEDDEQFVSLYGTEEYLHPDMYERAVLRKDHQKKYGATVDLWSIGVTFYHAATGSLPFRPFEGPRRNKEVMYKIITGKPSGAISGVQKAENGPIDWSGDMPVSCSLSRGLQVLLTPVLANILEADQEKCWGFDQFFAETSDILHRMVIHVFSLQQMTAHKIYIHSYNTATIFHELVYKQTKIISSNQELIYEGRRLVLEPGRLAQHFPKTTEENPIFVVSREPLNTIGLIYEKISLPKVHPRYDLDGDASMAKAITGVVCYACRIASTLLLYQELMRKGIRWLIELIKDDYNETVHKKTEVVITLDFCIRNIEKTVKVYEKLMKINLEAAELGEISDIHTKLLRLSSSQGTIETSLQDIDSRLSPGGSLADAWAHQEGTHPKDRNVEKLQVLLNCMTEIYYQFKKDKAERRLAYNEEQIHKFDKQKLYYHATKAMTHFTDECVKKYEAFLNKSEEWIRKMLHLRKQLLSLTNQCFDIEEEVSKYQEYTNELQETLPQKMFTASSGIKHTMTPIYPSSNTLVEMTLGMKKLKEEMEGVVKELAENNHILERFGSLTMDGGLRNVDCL
Summary of the method: (§1)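 Phosphorylation of casein or myelin basic protein was counted by P-81 filter capture after 30-45 min reactions stopped with phosphoric acid, with counts normalized to DMSO after background subtraction. ATP was twice Km: 60 μM for TBK1 and 32 μM for IKKε, plus [γ33]ATP. Sf9-expressed His-tag enzymes were used at normal/sensitized levels of 0.1/0.02 μg/ml (TBK1) and 0.1/0.015 μg/ml (IKKε).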

IKKε = target: T2, IKKε (Homo sapiens, UniProt Q14164); experiment: In-vitro IKKε kinase assay ([γ33]ATP filter-plate); format: biochemical
T2 construct: His-tag; made in house; host or cells: Sf9 insect cells
T2 sequence (Q14164 1-716): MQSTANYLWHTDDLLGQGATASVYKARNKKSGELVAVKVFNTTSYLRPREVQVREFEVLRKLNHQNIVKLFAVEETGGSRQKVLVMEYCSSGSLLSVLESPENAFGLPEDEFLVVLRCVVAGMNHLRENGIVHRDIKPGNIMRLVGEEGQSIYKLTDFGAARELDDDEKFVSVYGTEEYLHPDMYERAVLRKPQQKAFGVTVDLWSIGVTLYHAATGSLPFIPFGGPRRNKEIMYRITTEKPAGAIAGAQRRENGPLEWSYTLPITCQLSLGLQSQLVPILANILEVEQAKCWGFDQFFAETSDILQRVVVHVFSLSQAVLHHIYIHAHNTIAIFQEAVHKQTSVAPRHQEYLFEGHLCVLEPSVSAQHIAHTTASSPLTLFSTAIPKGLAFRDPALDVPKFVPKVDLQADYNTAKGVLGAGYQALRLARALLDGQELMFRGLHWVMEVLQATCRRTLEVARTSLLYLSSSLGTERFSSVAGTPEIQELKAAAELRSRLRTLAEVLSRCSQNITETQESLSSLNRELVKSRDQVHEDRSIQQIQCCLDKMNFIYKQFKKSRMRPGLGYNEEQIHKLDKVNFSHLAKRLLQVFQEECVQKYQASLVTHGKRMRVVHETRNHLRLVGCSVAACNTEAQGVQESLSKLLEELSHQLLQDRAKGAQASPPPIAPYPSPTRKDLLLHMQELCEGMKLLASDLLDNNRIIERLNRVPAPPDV
Summary of the method: as §1

[1] = text bins, read-out: IC50 for inhibition of the kinase activity of TBK1
[2] = text bins, read-out: IC50 for inhibition of the kinase activity of IKKε

| SMILES | IC50 (TBK1; [1]) | IC50 (IKKε; [2]) | IC50 (TBK1; Table 3, read-out: TBK1 IC50) | IC50 (IKKε; Table 3, read-out: IKKε IC50) |
| --- | --- | --- | --- | --- |
| COc1ccc(Nc2nc(-c3ccc(OC4CCOCC4)c(C#N)c3)c3nc[nH]c3n2)cc1OC [compound 532, 5-{2-[(3,4-Dimethoxyphenyl)amino]-3H-purin-6-yl}-2-(tetrahydro-2H-pyran-4-yloxy)benzonitrile] | 10 to 100 nM | 5 to 50 nM |  |  |
| N#Cc1cc(-c2nc(Nc3ccc(N4CCOCC4)cc3)nc3[nH]cnc23)ccc1OC1CCOCC1 [compound 553] | 10 to 100 nM | 5 to 50 nM |  |  |
| COCCNCc1ccc(Nc2nccc(-c3ccc(NC(=O)C4CC4)c(C#N)c3)n2)cc1 [compound 557] | 10 to 100 nM | 5 to 50 nM |  |  |
| N#Cc1cc(-c2ccnc(Nc3ccc(N4CCOCC4)cc3)n2)ccc1NC(=O)CN [compound 568, N-[2-Cyano-4-(2-{[4-(morpholin-4-yl)phenyl]amino}pyrimidin-4-yl)phenyl] glycinamide] | 10 to 100 nM | 5 to 50 nM |  |  |
| N#Cc1cc(-c2ccnc(Nc3cccc(CNCCN4CCOCC4)c3)n2)ccc1OC1CCOCC1 [compound 569, 5-(2-{[3-({[2-(Morpholin-4-yl)ethyl]amino}methyl)phenyl]amino}pyrimidin-4-yl)-2-(tetrahydro-2H-pyran-4-yloxy)benzonitrile] | 10 to 100 nM | 5 to 50 nM |  |  |
| COc1cc(Nc2nccc(-c3ccc(NC(=O)C4CC4)c(C#N)c3)n2)ccc1CN1CC(OC)C1 [compound 570, N-{2-Cyano-4-[2-({3-methoxy-4-[(3-methoxyazetidin-1-yl)methyl]phenyl}amino)pyrimidin-4-yl]phenyl} cyclopropane-carboxamide] | 10 to 100 nM | 5 to 50 nM |  |  |
| COC1CN(c2cc(Nc3nccc(-c4ccc(OC5CCOCC5)c(C#N)c4)n3)ccc2C)C1 [compound 572, 5-(2-{[3-(3-Methoxyazetidin-1-yl)-4-methylphenyl]amino}pyrimidin-4-yl)-2-(tetrahydro-2H-pyran-4-yloxy)benzonitrile] | < 10 nM | < 5 nM |  |  |
| COCCNCc1ccc(Nc2nccc(-c3ccc(OCC4CC4)c(C#N)c3)n2)cc1 [compound 581, 2-(Cyclopropylmethoxy)-5-{2-[(4-{[(2-methoxyethyl)amino]methyl}phenyl)amino]pyrimidin-4-yl}benzonitrile] | < 10 nM | < 5 nM |  |  |
| N#Cc1cc(-c2ccnc(Nc3cccc(N4CCOCC4)c3)n2)ccc1OC1CCOCC1 [compound 585, 5-(2-{[3-(Morpholin-4-yl)phenyl]amino}pyrimidin-4-yl)-2-(tetrahydro-2H-pyran-4-yloxy)benzonitrile] | < 10 nM | < 5 nM | 1.9 nM | 0.4 nM |
| Cc1ccc(Nc2nccc(-c3ccc(OC4CCOCC4)c(C#N)c3)n2)cc1N1CCOCC1 [compound 590, 5-(2-{[4-Methyl-3-(morpholin-4-yl)phenyl]amino}pyrimidin-4-yl)-2-(tetrahydro-2H-pyran-4-yloxy)benzonitrile] | < 10 nM | < 5 nM | 1.2 nM | 0.3 nM |

Other lines, results leading:

| IC50 (TBK1; [1]) | IC50 (IKKε; [2]) | IC50 (TBK1; Table 3, read-out: TBK1 IC50) | IC50 (IKKε; Table 3, read-out: IKKε IC50) | SMILES |
| --- | --- | --- | --- | --- |
| < 10 nM | 5 to 50 nM |  |  | CC(C)C(=O)Nc1ccc(-c2ccnc(Nc3cccc(CCN4CCOCC4)c3)n2)cc1C#N [compound 466, N-{2-cyano-4-[2-({3-[2-(morpholin-4-yl)ethyl]phenyl}amino)pyrimidin-4-yl]phenyl}-2-methylpropanamide] |
| < 10 nM | < 5 nM | 0.2 nM | 3.5 nM | COc1cc(-c2ccnc(Nc3ccc(N4CCOCC4)cc3)n2)cc(C#N)c1OC1CCOCC1 [compound 467, 3-methoxy-5-(2-{[4-(morpholin-4-yl)phenyl]amino}pyrimidin-4-yl)-2-(tetrahydro-2H-pyran-4-yloxy)benzonitrile] |
| < 10 nM | 5 to 50 nM |  |  | N#Cc1cc(-c2ccnc(Nc3ccc(N4CCOCC4)cc3)n2)ccc1O[C@@H]1CCNC1 [compound 470, 5-(2-{[4-(morpholin-4-yl)phenyl]amino}pyrimidin-4-yl)-2-[(3R)-pyrrolidin-3-yloxy]benzonitrile] |
| < 10 nM | < 5 nM | 0.3 nM | 1.4 nM | N#Cc1cc(-c2ccnc(Nc3ccc(CNC(=O)c4cnc(N)s4)cc3)n2)ccc1OC1CCOCC1 [compound 490, 2-amino-N-[4-({4-[3-cyano-4-(tetrahydro-2H-pyran-4-yloxy)phenyl]pyrimidin-2-yl}amino)benzyl]-1,3-thiazole-5-carboxamide] |
| < 10 nM | 5 to 50 nM |  |  | CC(C)(C)OC(=O)NCc1ccc(Nc2nccc(-c3ccc(OC4CCOCC4)c(C#N)c3)n2)cc1 [compound 491, tert-butyl [4-({4-[3-cyano-4-(tetrahydro-2H-pyran-4-yloxy)phenyl]pyrimidin-2-yl}amino)benzyl] carbamate] |
| < 10 nM | < 5 nM |  |  | COc1cc(Nc2nccc(-c3ccc(OC4CCOCC4)c(C#N)c3)n2)ccc1C(=O)N1CC2CC1CN2 (stereo not shown) [compound 496, 5-(2-{[4-(2,5-diazabicyclo[2.2.1]hept-2-ylcarbonyl)-3-methoxyphenyl]amino}pyrimidin-4-yl)-2-(tetrahydro-2H-pyran-4-yloxy)benzonitrile] |
| < 10 nM | 5 to 50 nM |  |  | C[C@H](O)C(=O)N1CCC(Oc2ccc(-c3ccnc(Nc4ccc(CN5CCOCC5)cc4)n3)cc2C#N)CC1 [compound 509, 2-({1-[(2S)-2-hydroxypropanoyl]piperidin-4-yl}oxy)-5-(2-{[4-(morpholin-4-ylmethyl)phenyl]amino}pyrimidin-4-yl)benzonitrile] |
| < 10 nM | < 5 nM | 0.4 nM | 0.8 nM | CC(C)COc1ccc(-c2ccnc(Nc3cccc(CS(=O)(=O)NCCO)c3)n2)cc1C#N [compound 534, 1-[3-({4-[3-Cyano-4-(2-methylpropoxy)phenyl]pyrimidin-2-yl}amino)phenyl]-N-(2-hydroxyethyl) methanesulfonamide] |
| < 10 nM | < 5 nM |  |  | CN(C)c1cccc(Nc2nccc(-c3ccc(OC4CCOCC4)c(C#N)c3)n2)c1 [compound 539, 5-(2-{[3-(Dimethylamino)phenyl]amino}pyrimidin-4-yl)-2-(tetrahydro-2H-pyran-4-yloxy)benzonitrile] |
| < 10 nM | 5 to 50 nM |  |  | CC1(C)CC1C(=O)Nc1ccc(-c2ccnc(Nc3ccc(N4CCOCC4)cc3)n2)cc1C#N (stereo not shown) [compound 554, N-[2-Cyano-4-(2-{[4-(morpholin-4-yl)phenyl]amino}pyrimidin-4-yl)phenyl]-2,2-dimethylcyclopropane-carboxamide] |
| < 10 nM | < 5 nM |  |  | COCCNC(=O)c1ccc(Nc2nccc(-c3ccc(NC(=O)C4CC4)c(C#N)c3)n2)cc1OC [compound 558, 4-[(4-{3-Cyano-4-[(cyclopropylcarbonyl)amino]phenyl}pyrimidin-2-yl)amino]-2-methoxy-N-(2-methoxyethyl) benzamide] |
| < 10 nM | < 5 nM | 2.1 nM | 0.6 nM | COCCNC(=O)c1ccc(Nc2nccc(-c3ccc(OCC(C)C)c(C#N)c3)n2)cc1 [compound 565, 4-({4-[3-Cyano-4-(2-methylpropoxy)phenyl]pyrimidin-2-yl}amino)-N-(2-methoxyethyl) benzamide] |
| < 10 nM | < 5 nM |  |  | N#Cc1cc(-c2ccnc(Nc3ccc(CS(=O)(=O)NCCO)cc3)n2)ccc1NC(=O)C1CC1 [compound 566, N-(2-Cyano-4-{2-[(4-{[(2-hydroxyethyl)sulfamoyl]methyl}phenyl)amino]pyrimidin-4-yl}phenyl) cyclopropane-carboxamide] |
